The values that follow come from ChEMBL document CHEMBL3593161, “Discovery of potent and selective nonplanar tankyrase inhibiting nicotinamide mimics” (Bioorg Med Chem, 2015).

Values joined by “and” are separate entries in the source; they are usually repeats but may differ in a detail not shown here. Equal entries are not always repeated.

The target in data set [1] is T1, Poly [ADP-ribose] polymerase tankyrase-2 (Homo sapiens, UniProt Q9H2K2).
T1 sequence (Q9H2K2 whole entry): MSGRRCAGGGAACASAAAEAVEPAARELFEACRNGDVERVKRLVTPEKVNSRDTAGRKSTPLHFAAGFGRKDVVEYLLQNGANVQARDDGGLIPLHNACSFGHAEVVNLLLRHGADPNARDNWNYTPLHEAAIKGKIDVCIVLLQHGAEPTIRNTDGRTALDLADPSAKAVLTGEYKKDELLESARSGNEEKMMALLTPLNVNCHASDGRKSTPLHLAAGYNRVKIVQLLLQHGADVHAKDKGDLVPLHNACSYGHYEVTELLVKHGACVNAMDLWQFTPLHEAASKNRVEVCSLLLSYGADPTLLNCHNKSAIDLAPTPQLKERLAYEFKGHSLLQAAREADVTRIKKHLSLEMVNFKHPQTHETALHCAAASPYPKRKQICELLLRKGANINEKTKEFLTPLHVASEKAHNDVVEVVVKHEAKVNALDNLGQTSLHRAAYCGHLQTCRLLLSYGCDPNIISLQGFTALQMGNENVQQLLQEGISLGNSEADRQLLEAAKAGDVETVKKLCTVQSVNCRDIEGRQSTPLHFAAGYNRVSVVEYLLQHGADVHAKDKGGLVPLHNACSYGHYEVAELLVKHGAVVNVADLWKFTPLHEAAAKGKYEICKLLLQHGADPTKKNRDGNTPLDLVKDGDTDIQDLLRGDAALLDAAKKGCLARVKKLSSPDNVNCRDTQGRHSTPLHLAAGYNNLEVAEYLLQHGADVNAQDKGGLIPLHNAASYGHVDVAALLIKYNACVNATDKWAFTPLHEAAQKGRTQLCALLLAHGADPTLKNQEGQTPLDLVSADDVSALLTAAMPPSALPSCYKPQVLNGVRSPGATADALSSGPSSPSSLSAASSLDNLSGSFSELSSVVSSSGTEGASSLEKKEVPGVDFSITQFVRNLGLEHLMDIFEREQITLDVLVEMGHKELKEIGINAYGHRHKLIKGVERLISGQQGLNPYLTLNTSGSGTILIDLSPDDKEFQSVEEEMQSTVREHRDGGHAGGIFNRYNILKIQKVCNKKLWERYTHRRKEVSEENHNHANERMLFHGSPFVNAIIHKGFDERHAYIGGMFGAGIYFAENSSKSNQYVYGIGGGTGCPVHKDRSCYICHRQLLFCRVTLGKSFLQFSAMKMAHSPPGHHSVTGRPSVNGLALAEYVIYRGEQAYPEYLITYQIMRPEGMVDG
Description: Inhibition of human TNKS2 (956 to 1161 and 873 to 1161) using 500 nM NAD substrate after 20 mins incubation by fluorescence assay

Data set [2] concerns the target T2, Protein mono-ADP-ribosyltransferase PARP15 (Homo sapiens, UniProt Q460N3).
T2 sequence (Q460N3 whole entry): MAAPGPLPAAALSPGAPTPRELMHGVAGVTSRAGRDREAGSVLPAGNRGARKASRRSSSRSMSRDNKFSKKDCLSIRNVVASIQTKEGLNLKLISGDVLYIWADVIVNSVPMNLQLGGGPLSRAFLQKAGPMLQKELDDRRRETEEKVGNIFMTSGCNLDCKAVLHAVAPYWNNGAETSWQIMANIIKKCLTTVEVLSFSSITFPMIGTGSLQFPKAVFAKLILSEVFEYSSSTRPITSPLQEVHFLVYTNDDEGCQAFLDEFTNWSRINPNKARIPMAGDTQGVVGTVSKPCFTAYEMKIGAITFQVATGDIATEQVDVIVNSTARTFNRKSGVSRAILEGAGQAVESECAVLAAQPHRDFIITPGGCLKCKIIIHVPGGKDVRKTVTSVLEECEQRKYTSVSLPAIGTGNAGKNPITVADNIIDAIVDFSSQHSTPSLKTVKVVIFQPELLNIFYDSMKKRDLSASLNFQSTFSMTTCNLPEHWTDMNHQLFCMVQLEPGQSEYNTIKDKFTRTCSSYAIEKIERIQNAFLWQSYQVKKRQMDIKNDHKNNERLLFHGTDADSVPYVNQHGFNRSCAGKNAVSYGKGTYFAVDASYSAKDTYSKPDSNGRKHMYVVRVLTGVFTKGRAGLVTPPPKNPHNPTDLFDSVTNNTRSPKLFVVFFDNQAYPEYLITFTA
Put plainly: Inhibition of human ARTD7 (460 to 656) using 250 nM NAD substrate at 10 uM after 2 hrs incubation.

The next data set concerns HEK293. Put plainly: Cytotoxicity against HEK293 cells assessed as cell viability at 2.5 to 10 uM. As to conditions: human, hek293, 10 µM. The data set is classed as cell-based.
Data set [3] has as its target Poly [ADP-ribose] polymerase 1 (Homo sapiens, UniProt P09874). Description: Inhibition of full-length human ARTD1 using 500 nM NAD substrate after 1 hr incubation.
Data set [4] addresses Poly [ADP-ribose] polymerase 2 (Homo sapiens, UniProt Q9UGN5). Put plainly: Inhibition of full-length human ARTD2 using 500 nM NAD substrate after 3 hrs incubation.

Poly [ADP-ribose] polymerase 1, sequence (P09874 whole entry): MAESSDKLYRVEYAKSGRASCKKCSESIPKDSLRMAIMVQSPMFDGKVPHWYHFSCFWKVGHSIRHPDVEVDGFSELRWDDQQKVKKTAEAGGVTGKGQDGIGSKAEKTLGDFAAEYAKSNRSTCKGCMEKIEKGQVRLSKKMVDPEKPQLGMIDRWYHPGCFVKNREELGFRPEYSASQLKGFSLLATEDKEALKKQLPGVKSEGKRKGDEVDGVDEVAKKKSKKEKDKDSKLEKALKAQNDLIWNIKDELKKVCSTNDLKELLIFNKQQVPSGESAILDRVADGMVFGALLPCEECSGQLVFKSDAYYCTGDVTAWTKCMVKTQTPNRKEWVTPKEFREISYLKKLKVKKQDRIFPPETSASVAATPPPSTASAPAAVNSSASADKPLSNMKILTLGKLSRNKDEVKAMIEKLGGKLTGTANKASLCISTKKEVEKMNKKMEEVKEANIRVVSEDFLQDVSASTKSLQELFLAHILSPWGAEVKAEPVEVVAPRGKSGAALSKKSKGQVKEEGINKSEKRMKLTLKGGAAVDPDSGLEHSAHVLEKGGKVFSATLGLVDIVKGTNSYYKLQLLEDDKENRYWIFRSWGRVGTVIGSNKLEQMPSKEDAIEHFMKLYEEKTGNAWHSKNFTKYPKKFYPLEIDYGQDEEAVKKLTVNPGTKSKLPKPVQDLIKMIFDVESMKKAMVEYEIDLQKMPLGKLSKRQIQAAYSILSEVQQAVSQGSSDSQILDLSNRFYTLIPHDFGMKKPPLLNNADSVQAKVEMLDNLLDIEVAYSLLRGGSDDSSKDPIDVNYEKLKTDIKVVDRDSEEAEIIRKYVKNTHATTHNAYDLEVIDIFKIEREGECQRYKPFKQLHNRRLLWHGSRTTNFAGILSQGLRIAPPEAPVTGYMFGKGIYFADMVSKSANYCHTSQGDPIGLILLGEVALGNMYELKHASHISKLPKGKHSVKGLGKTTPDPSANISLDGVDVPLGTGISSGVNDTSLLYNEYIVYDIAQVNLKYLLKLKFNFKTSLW
Poly [ADP-ribose] polymerase 2, sequence (Q9UGN5 whole entry): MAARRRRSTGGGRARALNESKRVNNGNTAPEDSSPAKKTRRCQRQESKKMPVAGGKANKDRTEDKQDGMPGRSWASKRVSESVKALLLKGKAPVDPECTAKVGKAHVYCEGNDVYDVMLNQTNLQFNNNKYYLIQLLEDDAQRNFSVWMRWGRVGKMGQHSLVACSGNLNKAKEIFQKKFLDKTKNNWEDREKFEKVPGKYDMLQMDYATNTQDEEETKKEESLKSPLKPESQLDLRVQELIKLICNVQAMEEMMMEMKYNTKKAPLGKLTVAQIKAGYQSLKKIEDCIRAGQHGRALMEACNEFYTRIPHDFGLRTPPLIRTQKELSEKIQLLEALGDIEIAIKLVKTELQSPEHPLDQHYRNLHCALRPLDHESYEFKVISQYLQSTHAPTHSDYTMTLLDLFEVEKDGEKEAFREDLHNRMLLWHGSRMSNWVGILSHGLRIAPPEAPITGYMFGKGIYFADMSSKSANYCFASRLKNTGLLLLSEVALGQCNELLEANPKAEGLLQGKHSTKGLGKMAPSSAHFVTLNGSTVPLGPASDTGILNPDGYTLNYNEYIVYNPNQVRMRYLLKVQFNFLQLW

As a reminder, the IC50 is the midpoint of a concentration-inhibition curve. Read a high IC50 as weaker potency. Regarding `CC(C)(C)c1ccc(C2NC(=O)c3ccccc3N2)cc1` (stereo not given), the IC50 in data set [1] was 150 nM and 155 nM; in data set [2], over 10000 nM; in data set [3], over 100000 nM; in data set [4] it was over 100000 nM. The Activity result in the data set with HEK293 is “Non-toxic”.

As to `CC(C)c1ccc(C2NC(=O)c3ccccc3N2)cc1` (stereo not given), the IC50 in data set [1] was 230 nM and 234 nM; in data set [2], over 10000 nM; in data set [3], over 100000 nM; in data set [4], over 100000 nM. Further, the Activity entry in the data set on HEK293 is given as “Non-toxic”.
